# Laboratory results from US8269000B2, “Substituted pyrimidine and triazine compounds” (Gruenenthal GmbH, priority 2008, dated 2012).
# Molecular target: T1, rat B1R (Rattus norvegicus, UniProt P97583)
# T1 construct: expressed in transfected cells; host or cells: CHO K1 cells
# T1 sequence (P97583 1-337): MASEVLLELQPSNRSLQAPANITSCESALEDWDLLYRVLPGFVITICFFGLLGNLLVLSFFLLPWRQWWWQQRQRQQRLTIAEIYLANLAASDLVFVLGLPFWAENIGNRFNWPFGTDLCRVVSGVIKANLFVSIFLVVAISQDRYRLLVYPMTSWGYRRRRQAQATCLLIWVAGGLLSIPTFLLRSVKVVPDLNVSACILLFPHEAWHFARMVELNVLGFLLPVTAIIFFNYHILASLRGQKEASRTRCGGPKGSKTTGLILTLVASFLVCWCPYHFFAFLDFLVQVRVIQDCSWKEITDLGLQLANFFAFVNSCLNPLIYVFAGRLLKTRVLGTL
# Assay: FLIPR Ca2+ functional study on bradykinin receptor 1 (rB1R CHO K1 cells)
# Type: cell-based
# Conditions: % inhibition rat B1R at 10 μM
# Procedure: The agonistic or antagonistic activity of substances can be quantified on the bradykinin receptor 1 (B1R) of the species human and rat using ectopically expressing cell lines (CHO K1 cells) and with the aid of a Ca^2+-sensitive dye (Fluo-4) using a fluorescent imaging plate reader (FLIPR). The indication in % activation is based on the Ca^2+ signal after addition of Lys-Des-Arg^9-bradykinin (0.5 nM) or Des-Arg^9-bradykinin (100 nM). Antagonists lead to suppression of the Ca^2+ influx after the addition of the agonist. % Inhibition compared with the maximum achievable inhibition is indicated.
# The agonistic or antagonistic activity of substances can be determined on the bradykinin receptor 1 (B1R) of the species human and rat using the following assay. According to this assay, the Ca^2+ influx through the channel is quantified with the aid of a Ca^2+-sensitive dye (Fluo-4 type, Molecular Probes Europe BV, Leiden, Netherlands) using a Fluorescent Imaging Plate Reader (FLIPR, Molecular Devices, Sunnyvale, USA).
# Chinese hamster ovary cells (CHO K1 cells) which have been stably transfected with the human B1R gene (hB1R cells) or with the B1R gene of the rat (rB1R cells) are used. For functional studies, the cells are plated out on black 96-well plates having a clear base (BD Biosciences, Heidelberg, Germany or Greiner, Frickenhausen, Germany) in a density of 20,000-35,000 cells/well. The cells are left overnight at 37° C. and with 5% CO2 in culture medium (hB1R cells: Nutrient Mixture Ham's F12, Gibco Invitrogen GmbH, Karlsruhe, Germany or DMEM, Sigma-Aldrich, Taufkirchen, Germany; rB1R cells: D-MEM/F12, Gibco Invitrogen GmbH, Karlsruhe, Germany), with 10 vol.% FBS (fetal bovine serum, Gibco Invitrogen GmbH, Karlsruhe, Germany or PAN Biotech GmbH, Aidenbach, Germany). On the following day, the cells are loaded for 60 minutes at 37° C. with 2.13 μM Fluo-4 (Molecular Probes Europe BV, Leiden, Netherlands) in HBSS buffer (Hank's buffered saline solution, Gibco Invitrogen GmbH, Karlsruhe, Germany) […] (Sigma-Aldrich, Taufkirchen, Germany) and 10 mM HEPES (Sigma-Aldrich, Taufkirchen, Germany). The plates are then washed twice with HBSS buffer, and HBSS buffer additionally containing 0.1% BSA (bovine serum albumin; Sigma-Aldrich, Taufkirchen, Germany), 5.6 mM glucose and 0.05% gelatin (Merck KGaA, Darmstadt, Germany) is added to the plates. After incubation for a further 20 minutes at room temperature, the plates are inserted into the FLIPR for Ca^2+ measurement. Alternatively, washing is carried out with buffer A (15 mM HEPES, 80 mM NaCl, 5 mM KCl, 1.2 mM CaCl2, 0.7 mM MgSO4, 2 g/l glucose, 2.5 mM probenecid) followed by loading with buffer A with added 2.5 μM Fluo-4 and 0.025% Pluronic F127 (Sigma-Aldrich, Taufkirchen, Germany). The cells are then washed twice with buffer A and incubated for 30 minutes at room temperature with buffer A additionally containing 0.05% BSA and 0.05% gelatin and are then inserted into the FLIPR for Ca^2+ measurement. The Ca^2+-dependent fluorescence is measured before and after the addition of substances (λex=488 nm, λem=540 nm). Quantification is carried out by measuring the highest fluorescence intensity (FC, fluorescence counts) over time.
# The FLIPR protocol consists of two substance additions. Test substances (10 μM) are first pipetted onto the cells and the Ca^2+ influx is compared with the control (hB1R: Lys-Des-Arg^9-bradykinin>=50 nM; rB1R: Des-Arg^9-bradykinin 10 μM). This gives the activation in %, based on the Ca^2+ signal after addition of Lys-Des-Arg^9-bradykinin (>=50 nM) or Des-Arg^9-bradykinin (10 μM). After 10-20 minutes' incubation, Lys-Des-Arg^9-bradykinin (hB1R) or Des-Arg^9-bradykinin (rB1R) is applied in the concentration of the EC80, and the influx of Ca^2+ is likewise determined. Antagonists lead to suppression of the Ca^2+ influx. The % inhibition compared with the maximum achievable inhibition is calculated. […]
row,Compound,% inh. (rat B1R) 10 μM [%]
1,"4-[[1-[(4-methoxy-2,6-dimethyl-phenyl)sulfonyl]-piperidin-2-yl]-methoxy]-2-(4-pyrazin-2-yloxy-piperidin-1-yl)-pyrimidine [H_CC-080]",59
2,"COc1cc(C)c(S(=O)(=O)N(C)CCOc2nccc(N3CCN(CC4CCN(C)CC4)CC3)n2)c(C)c1 [G_CC-007, 4-methoxy-N,2,6-trimethyl-N-[2-[[4-[4-[(1-methyl-4-piperidinyl)methyl]-1-piperazin]-2-pyrimidinyl]oxy]ethyl]benzenesulfonamide]",95
3,COc1cc(C)c(S(=O)(=O)N2CCCC(Oc3nccc(N4CCC(CCN5CCCCC5)CC4)n3)C2)c(C)c1 (stereo not drawn) [G_CC-027],63

# Same assay, conditions: CHO-K1, % inhibition rat B1R at 10 μM, read-out: % inh. (rat B1R) 10 μM
row,Compound,inhibition at 10 µM [%]
1,"O=S(=O)(c1cccc(C(F)(F)F)c1)N(CCCc1ccnc(N2CCC3(CCN(c4ccncc4)CC3)CC2)n1)C1CC1 [Example I-008, N-cyclopropyl-N-[3-[2-(9-pyridin-4-yl-3,9-diazaspiro[5.5]undecan-3-yl)-pyrimidin-4-yl]-propyl]-3-(trifluoromethyl)-benzenesulfonic acid amide]",94
2,"COc1cc(C)c(S(=O)(=O)N(C)CCOc2nccc(N3CCN(c4ccc(F)cc4)CC3)n2)c(C)c1 [G_CC-005, N-[2-[[4-[4-(4-fluorophenyl)-1-piperazinyl]-2-pyrimidinyl]oxy]ethyl]-4-methoxy-N,2,6-trimethylbenzenesulfonamide]",81
3,"COc1cc(C)c(S(=O)(=O)N(C)CCOc2nccc(N3CCC(O)(c4cccnc4)CC3)n2)c(C)c1 [G_CC-008, N-[2-[[4-[4-hydroxy-4-(3-pyridyl)-1-piperidinyl]-2-pyrimidinyl]oxy]ethyl]-4-methoxy-N,2,6-trimethylbenzenesulfonamide]",59
4,"COc1cc(C)c(S(=O)(=O)N2CCC[C@H]2COc2nccc(N3CCC(O)(c4cccnc4)CC3)n2)c(C)c1 [G_CC-020, 1-[2-[[(2S)-1-(4-methoxy-2,6-dimethylphenyl)sulfonyl-2-pyrrolidinyl]methoxy]-4-pyrimidinyl]-4-(3-pyridyl)-4-piperidinol]",102
5,"COc1cc(C)c(S(=O)(=O)N2CCCCC2COc2nccc(N3CCC4(CCN(Cc5ccccc5)C4)C3)n2)c(C)c1 (stereo not drawn) [G_CC-022, 3-benzyl-7-[2-[[1-(4-methoxy-2,6-dimethylphenyl)sulfonyl-2-piperidinyl]methoxy]-4-pyrimidinyl]-3,7-diazaspiro[4.4]nonane]",104
6,"COc1cc(C)c(S(=O)(=O)N2CCCCC2COc2nccc(N3CCC4(CC3)OCc3ccccc34)n2)c(C)c1 (stereo not drawn) [G_CC-023, 1′-[2-[[1-(4-methoxy-2,6-dimethylphenyl)sulfonyl-2-piperidinyl]methoxy]-4-pyrimidinyl]spiro[1H-isobenzofuran-3,4′-piperidine]]",50
7,"COc1cc(C)c(S(=O)(=O)N2CCCCC2COc2nccc(N3CCC4(CC3)C(=O)NCN4c3ccccc3)n2)c(C)c1 (stereo not drawn) [G_CC-025, 8-[2-[[1-(4-methoxy-2,6-dimethylphenyl)sulfonyl-2-piperidinyl]methoxy]-4-pyrimidinyl]-4-phenyl-2,4,8-triazaspiro[4.5]decan-1-one]",95
8,"COc1cc(C)c(S(=O)(=O)N(C)CCOc2nccc(N3CCC4(CCN(Cc5ccccc5)C4)C3)n2)c(C)c1 (stereo not drawn) [G_CC-028, N-[2-[[4-(3-benzyl-3,7-diazaspiro[4.4]nonan-7-yl)-2-pyrimidinyl]oxy]ethyl]-4-methoxy-N,2,6-trimethylbenzenesulfonamide]",104
9,"COc1cc(C)c(S(=O)(=O)N(C)CCOc2nccc(N3CCC4(CC3)OCc3ccccc34)n2)c(C)c1 [G_CC-029, 4-methoxy-N,2,6-trimethyl-N-[2-[[4-(1′-spiro[1H-isobenzofuran-3,4′-piperidin]yl)-2-pyrimidinyl]oxy]ethyl]benzenesulfonamide]",52
10,"COc1cc(C)c(S(=O)(=O)N(C)CCOc2nccc(N3CCC4(CC3)C(=O)NCN4c3ccccc3)n2)c(C)c1 [G_CC-030, 4-methoxy-N,2,6-trimethyl-N-[2-[[4-(1-oxo-4-phenyl-2,4,8-triazaspiro[4.5]decan-8-yl)-2-pyrimidinyl]oxy]ethyl]benzenesulfonamide]",79

# Next, values leading:
row,inhibition at 10 µM [%],Compound
1,97,"COc1cc(C)c(S(=O)(=O)N(C)CCOc2nccc(N3CCC(N4CCN(C)CC4)CC3)n2)c(C)c1 [G_CC-006, 4-methoxy-N,2,6-trimethyl-N-[2-[[4-[4-(4-methyl-1-piperazinyl)-1-piperidinyl]-2-pyrimidinyl]oxy]ethyl]benzenesulfonamide]"
2,63,"COc1cc(C)c(S(=O)(=O)N2CCCCC2COc2nccc(N3CCN(C)CC3)n2)c(C)c1 (stereo not drawn) [G_CC-009, 2-[[1-(4-methoxy-2,6-dimethylphenyl)sulfonyl-2-piperidinyl]methoxy]-4-(4-methyl-1-piperazinyl)pyrimidine]"
3,70,"COc1cc(C)c(S(=O)(=O)N2CCCCC2COc2nccc(N3CCN(c4ccc(F)cc4)CC3)n2)c(C)c1 (stereo not drawn) [G_CC-010, 4-[4-(4-fluorophenyl)-1-piperazinyl]-2-[[1-(4-methoxy-2,6-dimethylphenyl)sulfonyl-2-piperidinyl]methoxy]pyrimidine]"
4,76,"COc1cc(C)c(S(=O)(=O)N2CCCCC2COc2nccc(N3CCN(c4ncccn4)CC3)n2)c(C)c1 (stereo not drawn) [G_CC-012, 2-[[1-(4-methoxy-2,6-dimethylphenyl)sulfonyl-2-piperidinyl]methoxy]-4-[4-(2-pyrimidinyl)-1-piperazinyl]pyrimidine]"
5,83,"COc1cc(C)c(S(=O)(=O)N2CCC[C@H]2COc2nccc(N3CCN(C)CC3)n2)c(C)c1 [G_CC-015, 2-[[(2S)-1-(4-methoxy-2,6-dimethylphenyl)sulfonyl-2-pyrrolidinyl]methoxy]-4-(4-methyl-1-piperazinyl)pyrimidine]"
6,98,"COc1cc(C)c(S(=O)(=O)N2CCC[C@H]2COc2nccc(N3CCC(N4CCN(C)CC4)CC3)n2)c(C)c1 [G_CC-017, 2-[[(2S)-1-(4-methoxy-2,6-dimethylphenyl)sulfonyl-2-pyrrolidinyl]methoxy]-4-[4-(4-methyl-1-piperazinyl)-1-piperidinyl]pyrimidine]"
7,97,"COc1cc(C)c(S(=O)(=O)N2CCC[C@H]2COc2nccc(N3CCN(c4ncccn4)CC3)n2)c(C)c1 [G_CC-018, 2-[[(2S)-1-(4-methoxy-2,6-dimethylphenyl)sulfonyl-2-pyrrolidinyl]methoxy]-4-[4-(2-pyrimidinyl)-1-piperazinyl]pyrimidine]"
8,73,"COc1cc(C)c(S(=O)(=O)N2CCCCC2COc2nccc(N3CCC(n4c(=O)[nH]c5cc(Cl)ccc54)CC3)n2)c(C)c1 (stereo not drawn) [G_CC-024, 6-chloro-3-[1-[2-[[1-(4-methoxy-2,6-dimethylphenyl)sulfonyl-2-piperidinyl]methoxy]-4-pyrimidinyl]-4-piperidinyl]-1H-benzimidazol-2-one]"
